Patent publication US20250170112A1, “ADENOSINE LIGANDS FOR THE TREATMENT OF NEUROLOGICAL DISORDERS” (Lucy Therapeutics, Inc., priority 2022, published 2025)

Key:
[1] = target: T1, human Adenosine A1 receptor (Homo sapiens, UniProt P30542); experiment: GTPγS scintillation proximity assay, agonist testing; format: biochemical; details: agonist activity; membrane extracts of CHO-K1 cells expressing recombinant human A1; read-out: A1AR EC50
T1 construct: host or cells: CHO-K1
T1 sequence (P30542 1-326): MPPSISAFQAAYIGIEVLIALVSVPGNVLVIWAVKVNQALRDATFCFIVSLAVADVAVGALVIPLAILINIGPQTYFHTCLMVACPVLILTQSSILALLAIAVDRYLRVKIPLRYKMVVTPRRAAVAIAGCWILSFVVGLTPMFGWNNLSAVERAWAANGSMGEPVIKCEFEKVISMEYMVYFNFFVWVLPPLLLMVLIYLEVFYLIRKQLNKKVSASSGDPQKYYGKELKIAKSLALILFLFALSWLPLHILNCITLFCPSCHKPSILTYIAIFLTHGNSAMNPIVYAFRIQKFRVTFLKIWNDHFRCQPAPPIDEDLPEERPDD
Procedure: (§1) SPA ^35S-GTPγS experiments were conducted with Epics Therapeutics membrane preparations. cAMP HTRF assays were conducted with recombinant cell lines.
• Assay buffer: 20 mM HEPES pH 7.4; 100 mM NaCl, 10 μg/mL saponin, MgCl2 at optimized concentration for the specific receptor. • Membranes: membrane extracts prepared from CHO-K1 cells expressing recombinant human Adenosine A1 receptor, thawed on ice, diluted in assay buffer and kept on ice. • GDP: diluted in assay buffer at the optimized concentration for the specific receptor Beads: PVT-WGA (Perkin Elmer, RPNQ001), diluted in assay buffer at 50 mg/mL (0.5 mg/10 μL) • GTPγ^35S: (Perkin Elmer, NEG030X), diluted in assay buffer for a final 0.1 nM assay concentration
Protocol for agonist testing: membranes are mixed with GDP (volume:volume). In parallel, GTPγ[^35S] is mixed with the beads (volume:volume) just before starting the reaction. The following reagents are successively added in the wells of an Optiplate (Perkin Elmer): 50 μL of test or reference ligand, 25 μL of the membranes:GDP mix, and 25 μL of the GTPγ[^35S]:beads mix. The plates are covered with a top seal, mixed on an orbital shaker for 2 min, and then incubated for 1 hour at room temperature. Then the plates are centrifuged for 10 min at 2000 rpm, incubated at room temperature and counted for 30 sec/well with a PerkinElmer TopCount™ reader. • Conditions for the GTPγS scintillation proximity assay are shown in Table 14.

human A2B = target: T2, human A2B (Homo sapiens, UniProt P29275); experiment: cAMP HTRF assay for Gs coupled receptor, agonist test; format: cell-based; details: agonist activity; HEK293 cells expressing recombinant human A2B; read-out: A2BAR EC50
T2 construct: expressed in transfected cells; host or cells: HEK293
T2 sequence (P29275 1-332): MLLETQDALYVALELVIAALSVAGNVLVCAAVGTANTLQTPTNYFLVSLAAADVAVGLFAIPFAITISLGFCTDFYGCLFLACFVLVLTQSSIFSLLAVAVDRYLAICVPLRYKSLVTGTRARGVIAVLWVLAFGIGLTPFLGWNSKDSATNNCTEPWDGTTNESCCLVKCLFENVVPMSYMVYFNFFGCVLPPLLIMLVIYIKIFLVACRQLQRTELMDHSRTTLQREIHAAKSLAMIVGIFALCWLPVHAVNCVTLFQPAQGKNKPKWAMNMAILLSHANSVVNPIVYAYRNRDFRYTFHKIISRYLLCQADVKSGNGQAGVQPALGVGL
Procedure: as §1
Dose response curves are performed in parallel with the reference compounds.
For agonist test (96 well): 12 μL of cells are mixed with 12 μL of the test compound at increasing concentrations and then incubated 30 min at room temperature. After addition of the lysis buffer containing cAMP-d2 and anti-cAMP cryptate detection reagents, plates are incubated 1 hour incubation at room temperature, and fluorescence ratios are measured according to the manufacturer specification, with the HTRF kit.

Compound	EC50 [1] [nM]	EC50 (human A2B) [nM]
N#Cc1c(N)nc(SCc2cccc3[nH]ccc23)c(C#N)c1-c1ccc(OCCO)cc1 [Compound 8]	37.1	37.7
Cn1ccc2c(CSc3nc(N)c(C#N)c(-c4ccc(OC5COC5)cc4)c3C#N)cccc21 [Compound 302]	64.8	894
N#Cc1c(SCC2COC2)nc(N2CC(F)(F)C2)c(C#N)c1-c1ccc(OCCO)cc1 [Compound 273]	295	> 10000
N#Cc1c(SCc2cccnc2)nc(N2CC(O)C2)c(C#N)c1-c1ccc(OC2COC2)cc1 [Compound 268]	1.16	56.7
COCCOc1ccc(-c2c(C#N)c(SCc3cccnn3)nc(N3CCC3)c2C#N)cc1 [Compound 12]	483	> 10000
COCCOc1ccc(-c2c(C#N)c(N)nc(Sc3cccnc3)c2C#N)cc1 [Compound 246]	> 10000	> 10000
N#Cc1c(N)nc(SCc2cccnc2)c(C#N)c1-c1ccc(O[C@H]2C[C@@H](O)C2)cc1 [Compound 296, 2-Amino-4-(4-((1s,3s)-3-hydroxycyclobutoxy)phenyl)-6-((pyridin-3-ylmethyl)thio)pyridine-3,5-dicarbonitrile]	20.6	2.47
CN(C)C(=O)CSc1nc(N)c(C#N)c(-c2ccc(OCCO)cc2)c1C#N [Compound 138]	891	2460
N#Cc1c(N)nc(OCC2COC2)c(C#N)c1-c1ccc(OC2COC2)cc1 [Compound 312, 2-Amino-6-(oxetan-3-ylmethoxy)-4-(4-(oxetan-3-yloxy)phenyl)pyridine-3,5-dicarbonitrile]	204	> 10000
N#Cc1c(N)nc(SCC2OCCO2)c(C#N)c1-c1ccc(OC2COC2)cc1 [Compound 304]	167	> 10000
COCCOc1ccc(-c2c(C#N)c(N)nc(CCc3cccnc3)c2C#N)cc1 [Compound 191]	567	> 10000
COc1nc(SCC2COC2)c(C#N)c(-c2ccc(OC3COC3)cc2)c1C#N [Compound 294, 2-Methoxy-6-((oxetan-3-ylmethyl)thio)-4-(4-(oxetan-3-yloxy)phenyl)pyridine-3,5-dicarbonitrile]	25.2	> 10000
COCCOc1ccc(-c2c(C#N)c(SCC3COC3)nc(N3CC(O)C3)c2C#N)cc1 [Compound 270]	205	> 10000
N#Cc1c(SCc2cccnc2)nc(N2CC(F)(F)C2)c(C#N)c1-c1ccc(OC(F)(F)CO)cc1 [Compound 256]	> 10000	> 10000
COCCOc1ccc(-c2c(C#N)c(N)nc(S[C@H](C)c3ccccn3)c2C#N)cc1 [Compound 243]	> 10000	6450
N#Cc1cnc(SCC2CCCO2)c(C#N)c1-c1ccc(OCCO)cc1 (centres unmarked) [Compound 1]	> 10000	5850
COCCOc1ccc(-c2c(C#N)c(SCc3cccnc3)nc(C3CC3)c2C#N)cc1 [Compound 46]	110	> 10000
N#Cc1c(SCc2cccnc2)nc(N2CC(F)C2)c(C#N)c1-c1ccc(OC2COC2)cc1 [Compound 271]	30.3	116
COCCOc1ccc(-c2c(C#N)c(N)nc(SCc3ccc4c(c3)OCC4)c2C#N)cc1 [Compound 16]	7600	> 10000
CNCCSc1nc(N)c(C#N)c(-c2ccc(OCCOC)cc2)c1C#N [Compound 140]	7500	> 10000
COCCOc1ccc(-c2c(C#N)c(SCCO)nc(N3CCC3)c2C#N)cc1 [Compound 89]	819	> 10000
N#Cc1c(N)nc(SCc2cccnn2)c(C#N)c1-c1ccc(OCCO)cc1 [Compound 178]	1.5	0.06
N#Cc1c(N)nc(SCC2(O)COC2)c(C#N)c1-c1ccc(OC2COC2)cc1 [Compound 315]	81.8	> 10000

Compound	EC50 [1] [nM]	EC50 (human A2B) [nM]
N#Cc1c(N)nc(SCc2cncnc2)c(C#N)c1-c1ccc(OCCO)cc1 [Compound 175]	20	0.9
N#Cc1c(N)nc(SCC2CCOCC2)c(C#N)c1-c1ccc(OC2COC2)cc1 [Compound 305]	140	1120
N#Cc1c(N)nc(SCc2cccnc2)c(C#N)c1-c1ccc(OCCOC(F)F)cc1 [Compound 40]	21.6	> 10000
N#Cc1c(SCC2COC2)nc(N2CCC2)c(C#N)c1-c1ccc(OC2COC2)cc1 [Compound 293]	73.2	> 10000
COCCOc1ccc(-c2c(C#N)c(N)nc(SCc3ccc4ccoc4c3)c2C#N)cc1 [Compound 213]	> 10000	> 10000
N#Cc1c(N)nc(SCc2cccc3occc23)c(C#N)c1-c1ccc(OCCO)cc1 [Compound 7]	> 10000	150
N#Cc1c(N)nc(SCc2cnccn2)c(C#N)c1-c1ccc(OCCOC(F)F)cc1 [Compound 235]	3280	1970
N#Cc1c(SCC2COC2)nc(N2CCCC2)c(C#N)c1-c1ccc(OC2COC2)cc1 [Compound 292]	93	> 10000
Cc1ccc(CSc2nc(N3CCCC3)c(C#N)c(-c3ccc(OCCO)cc3)c2C#N)cn1 [Compound 70]	469	209
N#Cc1c(N)nc(SCc2cccnc2)c(C#N)c1-c1ccc(OC2COC2)cc1 [Compound 66]	2.5	0.2
N#Cc1c(N)nc(CCc2cccnc2)c(C#N)c1-c1ccc(OCCO)cc1 [Compound 125]	> 10000	468
COCCOc1ccc(-c2c(C#N)c(N)nc(SCc3cccc(OC(F)(F)F)c3)c2C#N)cc1 [Compound 35]	238	> 10000
N#Cc1c(N)nc(SCc2n[nH]c3ccccc23)c(C#N)c1-c1ccc(OCCO)cc1 [Compound 207]	739	108
COCCOc1ccc(-c2c(C#N)c(N)nc(SCc3cccc4[nH]cnc34)c2C#N)cc1 [Compound 215]	> 10000	> 10000
COCCOc1ccc(-c2c(C#N)c(N)nc(SCc3ccccc3)c2C#N)cc1 [Compound 152]	92	> 10000
N#Cc1c(SCc2cncnc2)nc(N2CCC2)c(C#N)c1-c1ccc(OCCO)cc1 [Compound 23]	100	420
N#Cc1c(SCc2cccnc2)nc(N2CCC2)c(C#N)c1-c1ccc(OC(F)(F)CO)cc1 [Compound 259, 2-(Azetidin-1-yl)-4-(4-(1,1-difluoro-2-hydroxyethoxy)phenyl)-6-((pyridin-3-ylmethyl)thio)pyridine-3,5-dicarbonitrile]	> 10000	198
N#Cc1c(N)nc(SCc2cccc(OC(F)(F)F)c2)c(C#N)c1-c1ccc(OC2COC2)cc1 [Compound 29]	79	6120
COCCOc1ccc(-c2c(C#N)c(N)nc(SCc3cccc4c3CCO4)c2C#N)cc1 [Compound 212]	7600	> 10000
COCCOc1ccc(-c2c(C#N)c(Sc3cccnc3)nc(N3CC(F)C3)c2C#N)cc1 [Compound 245]	2.05	> 10000
N#Cc1c(N)nc(SCC2CCOC2)c(C#N)c1-c1ccc(OC2CCCOC2)cc1 (centres unmarked) [Compound 326]	> 10000	> 10000
N#Cc1c(N)nc(SCc2cccnc2)c(C#N)c1-c1ccc(O[C@H]2C[C@H](O)C2)cc1 [Compound 295, 2-Amino-4-(4-((1r,3r)-3-hydroxycyclobutoxy)phenyl)-6-((pyridin-3-ylmethyl)thio)pyridine-3,5-dicarbonitrile]	1.6	9.79
N#Cc1c(N)nc(SCc2c[nH]c3ccccc23)c(C#N)c1-c1ccc(OCCO)cc1 [Compound 206]	981	495
